Results: ChEMBL document CHEMBL1141327, “Planktocyclin, a cyclooctapeptide protease inhibitor produced by the freshwater cyanobacterium Planktothrix rubescens” (J Nat Prod, 2007)
Peptide text beside a SMILES is read from it.

What was measured:
[1] = Inhibition of porcine trypsin; design: species or system Sus scrofa
[2] = target: Caspase-8 (Homo sapiens, UniProt Q14790); experiment: Inhibition of human recombinant caspase 8 expressed in Escherichia coli
[3] = Inhibition of bovine alpha chymotrypsin; design: species or system Bos taurus
[4] = target: Cathepsin B (Bos taurus, UniProt P07688); experiment: Inhibition of bovine Cathepsin B

Chain of Caspase-8 (Q14790 217-374 limits assumed): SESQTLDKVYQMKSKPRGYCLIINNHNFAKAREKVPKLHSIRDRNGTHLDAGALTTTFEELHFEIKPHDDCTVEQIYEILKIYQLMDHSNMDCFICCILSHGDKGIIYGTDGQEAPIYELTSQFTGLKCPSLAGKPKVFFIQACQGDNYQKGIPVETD
Chain of Caspase-8 (Q14790 385-479 limits assumed): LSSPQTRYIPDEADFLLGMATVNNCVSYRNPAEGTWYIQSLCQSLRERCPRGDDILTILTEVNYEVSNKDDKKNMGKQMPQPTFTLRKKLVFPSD

IC50 [1]: 0.104 µM
IC50 [2]: 93 µM
IC50 [3]: 10 µM
IC50 [4]: > 500 µM
Compound: CSCC[C@@H]1NC(=O)[C@H](C(C)C)NC(=O)[C@H](CC(C)C)NC(=O)CNC(=O)[C@@H]2CCCN2C(=O)[C@H](C(C)C)NC(=O)CNC(=O)[C@H](Cc2ccccc2)NC1=O [PLANKTOCYCLIN] (cyclo(FGVPGLVM))
